The test system of assay [1] is SKBR3 tumour lines, containing his-175 mutation. As to conditions: SKBR3, his-175 mutation; cited from earlier work.
Another assay deals with SW480 and MDA-MB-468. As to conditions: cell lines containing other types of mutation (SW480, MDA-MB-468); cited from earlier work.
A further assay deals with GST-p53 His175 (Homo sapiens, UniProt P04637, R175H). Briefly: Dot immunobinding test with purified GST-p53 fusion proteins. The assay is classed as binding. The note with it: 20 μg GST fusion purified proteins. The method, then: (A) Total extracts deriving from SKBR3, (His-175) HT29, (His-273) and H1299 (p53 free) tumour cells have been incubated (1 mg) on SIMP1 and SIMPIKO peptide labelled nitrocellulose membrane and Dot Blot analysed. In (B) the membranes have been incubated with 20 μg of wild type WT GST-p53 purified protein or GST-p53 His-175, GST-p53-His-175, 74-298 or GST alone. In both experiments dots have been detected by labelling the membranes with anti-p53 (DO1) antibody
Nitrocellulose membranes have been cut, washed with water and blotted on the paper filters. The peptides at 250 mM concentration have been transferred on membrane. Labelled membrane has been washed for 10 min. with TBST buffer (10 mM Tris-HCl pH 7.4, 150 mM NaCl, 0.05% (v/v) Tween-20) and then blocked for 45 min with TBST/5% milk. Then the membranes have been incubated for 6 hours at 4° C. in shaker with 1 mg of total protein extract or 20 μg of GST fusion purified proteins. Successively the membranes have been washed with TBST buffer and decorated with anti-p53 antibody (DO1) as a primary antibody. As secondary antibody horse peroxidase conjugated goat antibody has been used. Immunolabelled lanes have been detected using chemiluminescence analysis (Pierce).
The membranes decorated with SIMP peptides also have been incubated with GST-p53 His175, GST p53His74-298, GST WTp53 fusion proteins, GST control.

The test system of assay [2] is tumour cell lines containing His-175 or His-273 p53 mutation. Briefly: Summary of activity by p53 mutation type. It is filed as cell-based. The note with it: for activity on p53 mutant categories (His-175, His-273): summary statement; for specificity for p53 mutation type: FIG. 6 summary. The text has this:
SIMP1M: FQQSSTARSATW (SEQ ID NO:16) (MW: 1369, PI: 9.75) peptide is a mutated version of SIMP1 peptide wherein K138 residue has been replaced by Arginine.
FIG. 6 that SIMP peptides and by-products thereof displace protein complexes involving mutated protein p53 and p73.

A further assay has as its system HT29 cells. Kind of assay: In vivo tumorigenicity test (xenograft of peptide transfected HT29 cells). The note with it: naked mice, s.c. 5×10^5 peptide transfected cells/mouse, 5 weeks. The method, then: In order to assay SIMP1 in vivo antitumor activity nu/nu […] mice were administered subcutaneously with SIMP1, SIMP1KO and SIMP5M transfected HT29 cells (5.0×10^5 cells/mouse). Tumour growth has been monitored over 5 weeks.
Xenograft assays have been carried out by administration to naked mice subcutaneous injections containing 5×10^5 cells/mouse of SIMP1, SIMP1KO and SIMP5M peptide transfected colon and rectum tumour human cell line (nu/nu CD1 Charles River mice). The tumour growth together with animal body weight is monitored for 5 weeks in order to estimate the chronic toxicity
The experiments have been carried out by administration to naked mouse (nu/nu CD1 Charles River mice) subcutaneous injections containing 5×10^5 cells/mouse. The tumour growth has been monitored together with animal body weight for 5 weeks in order to estimate possible not occurred chronic toxic effects (FIG. 5).

Assay [3] relates to MDA-MB468 breast and HT29 colon carcinoma cell lines. Kind of assay: Cell viability / proliferation assays after peptide transfection. The assay is classed as cell-based, human. The note with it: peptide transfected cells. The method, then: (A) In order to verify the SIMPI peptide specificity, independently from the cellular context, we tested SIMP1 peptides in some Adriamicyn treated colon carcinoma HT29 (His-273). cell lines. The cells have been transfected using a mixture containing lipofectamine, pLUC-BAX plasmid, β-galactosidase expression vector, SIMP1 and SIMP5M control peptides. 24 hours post-transfection, have been treated with 3 μM Adriamicyn. (B-C). Viability and inhibition assays have been carried out after transfection using SIMP1 and SIMP5M peptides in HT29 (colon cancer) and MDA-MB-468 (breast cancer) cell lines
Cell viability has been tested using Trypan Blue exclusion assays.
We observed a reduction of cell proliferation in MDA-MB468 breast and HT29 colon carcinoma cell lines.

The target of a further assay is T1, m-p53His-273/p73 complex (Homo sapiens, UniProt P04637, R273H).
T1 construct: Total cellular lysates (1 mg), have been immunoprecipitated with antibodies directed against p73; endogenous in cells; host or cells: MDA-MB-468
Briefly: Coprecipitation (immunoprecipitation) test of the m-p53/p73 complex in MDA-MB-468 cells. It is filed as cell-based. As to conditions: His-273 mutation, peptide 20 μM, anti-p73 immunoprecipitation. The method, then:
(§1) (A) MDA-MB-468 (5×10^5) cells have been transfected using a lipofectamine containing mixture, βgal expression vector, which normalizes transfection efficiency, and SIMPI peptide (20 μM). Total cellular lysates (1 mg), have been immunoprecipitated with antibodies directed against p73 and immunoglobulins (IgG). Immunoprecipitates and an aliquot (50 μg) of total lysate after 12% acrylamide gel electrophoretic run have been transferred on nitrocellulose membrane and labelled with antibodies shown in the figure. (B) MDA-MB-468 cells, have been transfected using SIMP1 and SIMP5,6. peptides. Successively, cells have been washed and stimulated with 3 μM Adriamycin. Total obtained lysates (30 μg) have been assayed for the expression of PARP and BAX apoptotic proteins. Lysate has been normalized by assaying γ-tubulin expression. (C-D). Transactivation tests have been carried out by transient transfection of H1299 cells using a mixture containing lipofectamine, SIMP1, SIMP5,6 indicated plasmids (20 μM each) together with pLUC-BAX reporter vector. To each reaction mixture an equal amount of […] expression vector was added, in order to normalize the transfection efficiency.
The cell extracts have been processed in a lysis buffer containing 50 mm Tris HCl pH 8, 100 mM NaCl, 10% glycerol, 1% Triton X-100, 1 mM EDTA, 100 mM NaF, MgCl2, 1 mM PMSF, protease and phosphatase inhibitors. Then extracts have been sonicated and centrifuged at 14.000 rpm for 10 min for the debris removal.
50 μg of solubilised proteins have been separated by electrophoresis on 10 or 15% SDS-polyacrylamide gel. Western blot analysis has been carried out using anti-p53 primary antibodies (DO1 Calbiochem), rabbit anti-PARP, rabbit polyclonal anti-Bax, anti-p21 and anti-tubulin monoclonal antibodies (Calbiochem). […] Immunolabelled lanes have been detected using chemiluminescence analysis (Pierce). […]
In order to evaluate the activity of SIMPI peptide and SIMP1KO and SIMP1M derivatives the ability in disrupting the oncogenic m-p53His-273/p73 complex has been analysed.

Another assay deals with MDA-MB-468 cells. Briefly: Apoptotic tests (PARP and BAX expression, Western blot) after Adriamycin. As to conditions: MDA-MB-468, 3 μM Adriamycin. It is filed as cell-based, human. The method, then:
as §1
50 μg of solubilised proteins have been separated by electrophoresis on 10 or 15% SDS-polyacrylamide gel. Western blot analysis has been carried out using anti-p53 primary antibodies (DO1 Calbiochem), rabbit anti-PARP, rabbit polyclonal anti-Bax, anti-p21 and anti-tubulin monoclonal antibodies (Calbiochem). Goat anti-mouse and goat anti-rabbit horse peroxidase conjugated secondary antibodies (Amersham) have been used for the expression analyses. Immunolabelled lanes have been detected using chemiluminescence analysis (Pierce).
To this end cell viability and apoptotic tests (FIG. 1B, FIG. 4 B-C) on MDA-MB468 breast carcinoma have been carried out.
(In general: Immunoblotting shows a protein as a band on a membrane.)

Assay [4] deals with MDA-MB-468 cells (His-273 p53 mutation). Briefly: Transactivation test (pLUC-BAX, pLUC-p21) in Adriamycin treated MDA-MB-468 cells. The assay is classed as cell-based, human. As to conditions: MDA-MB-468, 3 μM Adriamycin 24 hours post-transfection, luciferase reporter. The method, then:
MDA-MB-468 cells have been transfected using a mixture containing lipofectamine, pLUC-BAX plasmid, β-galactosidase expression vector, SIMP1 and SIMP control peptides. The cells, 24 hours post-transfection, have been treated with 3 μM Adriamycin.
MDA-MB-468 cells have been transfected using a mixture containing lipofectamine, pLUC-BAX plasmid, pLUC-p21, β-galactosidase expression vector, SIMP1 peptides and SIMP1M and SIMP1KO derived mutant thereof. The cells, 24 hours post-transfection, have been treated with 3 μM Adriamicyn and then processed.
SKBR3, HT-29, MDA-MB-468 cell lines have been transfected with Lipofectamine 2000 according to the supplier instructions (InVitrogen).
Cells (1.5×10^5) have been transiently transfected using SIMP peptides, expression plasmids and reporter constructs as internal controls for transfection efficiency. After the transfection, SKBR3, HT-29 and MDA-MB-468 have been incubated with 3 μM ADR over 24 hours. Cells have been washed with cold PBS and re-suspended in lysis buffer (Promega) and incubated for 10 min at room temp. Insoluble material has been centrifuged and luciferase activity has been determined using a commercial kit with a luminometer (Turner).
(In general: In a reporter assay the amount or activity of a reporter protein is the signal.)

The test system of assay [5] is m-p53 His273 inhibition on p73 transcription activity. Briefly: Transactivation test with pLUC-BAX reporter in transiently transfected H1299 cells. It is filed as cell-based, human. The note with it: peptides 20 μM each. The method, then:
as §1, with “efficiency. […]” for “efficiency.”
To this end, we have analyzed the ability in blocking the His273 p53 induced inhibition on transcription activity. […]

Data on 5 sequences can be found in US20120237614A1, “PEPTIDE ABLE TO DISRUPT THE PROTEIN COMPLEX BETWEEN THE HIS273 MUTADED P53 PROTEIN AND THE ONCOSUPPRESSIVE P73 PROTEIN IN TUMOR CELLS AND THERAPEUTIC USES THEREOF” (priority 2009, published 2012).

“GQRDFNEGQSAPA (p73 SIMP (aa 200-211) wherein Q has been inserted between G (aa200) and R (aa201)) [SIMP6]”: the “sensitivity to chemotherapeutic treatment” value in [1] is on record as “more sensitive to chemotherapeutic treatment”. The “change in apoptotic response” value in the assay with SW480 and MDA-MB-468 is “do not induce changes in the apoptotic response”.

As to “FQQSSTAASATW (SEQ ID NO1 wherein K is substituted by A) [SIMP1KO]”, the “reaction with GST-p53 fusion proteins (dot blot, anti-p53 DO1)” value with GST-p53 His175 is “no reaction was observed”. Also, the “activity on p53 mutant categories (His-175, His-273)” value in assay [2] was “displays no activity on both mutant categories”. Besides, in the assay with HT29 cells, the “tumour growth (tumour size) in vivo” value was “tumour growth similar to non treated control”.

On to “VVKRCPNHELGRD (p73 SIMP (aa 190-202)) [SIMP5M, control peptide, reference compound]”, for which, in the assay with GST-p53 His175, the “reaction with GST-p53 fusion proteins (dot blot, anti-p53 DO1)” value was “specifically reacts against his175 m-p53”. Also, in assay [2], the “specificity for p53 mutation type” value was “specific for His-175 mutation containing tumours”. In addition, the “tumour growth (tumour size) in vivo” value in the assay with HT29 cells is on record as “tumour growth similar to non treated control”.

In the case of “FQQSSTARSATW (SEQ ID NO1 wherein k is substituted by R) [SIMP1M]”, the “cell proliferation in vitro” value in [3] is “reduce the cell proliferation in vitro”. For the same sequence, the “disruption of m-p53 His-273/p73 protein complex (p73 bound m-p53 amount)” value in the assay with m-p53His-273/p73 complex is “disrupt selectively m-p53/p73 complex”. The apoptotic response result in the assay on MDA-MB-468 cells is “increase the apoptotic response to chemotherapeutic agents”. Further, the “Adriamycin chemosensitivity / p73 transcription response” value in assay [4] is on record as “increase Adriamycin chemosensitivty”. The “restoration of p73 transcription activity inhibited by m-p53 His273” value in assay [5] was “modify mutated p53/p73 protein complex restoring p73 oncosuppressive functions”. Besides, in assay [2], the “specificity for p53 mutation type” value is “display specificity for His-273 mutation containing tumours” and the “activity on p53 mutant categories (His-175, His-273)” value was “displays the same, although increased, functions”. The “activity on tumour cell lines containing different mutation types” value in assay [2] (mutations other than His-273) is “has no activity on tumour cell lines containing different mutation types”. Also, in the assay on HT29 cells, the “tumour growth (tumour size) in vivo” value is listed as “meaningful reduction of the growth (tumour size)”.

With “VVKRCPNHE (p73 SIMP (aa 190-198)) [SIMP5]”, the “sensitivity to chemotherapeutic treatment” value in assay [1] is “more sensitive to chemotherapeutic treatment”. In the assay with SW480 and MDA-MB-468, the “change in apoptotic response” value is reported as “do not induce changes in the apoptotic response”.
